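Dose response: 5 concentrations. Exposure: 48 h. Format: 96-well plates. Endpoint: linear interpolation; highest concentration if not reached. GI50 marks 50% less growth. TGI: total growth inhibition.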
What was measured:
Experiment in all cases: DTP human tumour cell line panel, 48 h
SK-MEL-28 melanoma = system: SK-MEL-28 melanoma
MDA-MB-435 = system: MDA-MB-435
DU-145 prostate = system: DU-145 prostate
SK-MEL-2 melanoma = system: SK-MEL-2 melanoma
HS 578T breast = system: HS 578T breast
SW-620 colon = system: SW-620 colon
MOLT-4 leukemia = system: MOLT-4 leukemia
HT29 colon = system: HT29 colon
ACHN renal = system: ACHN renal
NCI-H226 lung = system: NCI-H226 lung

Row | Structure (SMILES) | GI50 (SK-MEL-28 melanoma) [µM] | TGI (SK-MEL-28 melanoma) [µM] | GI50 (MDA-MB-435) [µM] | TGI (MDA-MB-435) [µM] | GI50 (DU-145 prostate) [µM] | TGI (DU-145 prostate) [µM] | GI50 (SK-MEL-2 melanoma) [µM] | TGI (SK-MEL-2 melanoma) [µM] | GI50 (HS 578T breast) [µM] | TGI (HS 578T breast) [µM] | GI50 (SW-620 colon) [µM] | TGI (SW-620 colon) [µM] | GI50 (MOLT-4 leukemia) [µM] | TGI (MOLT-4 leukemia) [µM] | GI50 (HT29 colon) [µM] | TGI (HT29 colon) [µM] | GI50 (ACHN renal) [µM] | TGI (ACHN renal) [µM] | GI50 (NCI-H226 lung) [µM] | TGI (NCI-H226 lung) [µM]
1 | CN(C)CCS(=O)(=O)Nc1cc(-c2ccc3ncc(C#N)c(Nc4ccc(F)c(Cl)c4)c3c2)cnc1Cl | 0.176 | 1.28 | 0.374 | 3 | 0.293 | 2.11 | 0.173 | 0.532 | 0.127 | 1.03 | 0.263 | 1.43 | 0.12 | 0.547 | 0.388 | > 25.9 | 0.546 | > 100 | 0.281 | 2.59
2 | CCOC(=O)c1cc(NS(=O)(=O)c2ccc(C)cc2)cc(C(=O)OCC)c1 | 27 | 93.5 | 33.6 | > 100 | 34.9 | > 100 | 28.3 | > 100 | 26.4 | 69.9 | > 100 | > 100 | 26.6 | > 100 | 82.7 | > 100 | 42.3 | > 100 | 54 | > 100
3 | Nc1ncn([C@H]2C[C@H](OP(=O)(O)OC[C@H]3O[C@@H](n4cnc5c(=O)[nH]c(N)nc54)C[C@@H]3O)[C@@H](CO)O2)c(=O)n1 | > 100 | > 100 | > 100 | > 100 | > 100 | > 100 | > 100 | > 100 | > 100 | > 100 | > 100 | > 100 | > 100 | > 100 | 47.1 | > 100 | 38.4 | > 100 | > 100 | > 100
4 | Cc1cccc(Cl)c1NC(=O)c1cnc(Nc2cc(N3CCOCC3)cc(S(C)(=O)=O)c2)s1 | > 5.14 | > 10 | > 9.63 | > 10 | 1.2 | 5.14 | > 10 | > 10 | 0.138 | 0.826 | > 10 | > 10 | 5.71 | > 10 | 0.203 | 0.663 | 0.364 | > 7.11 | – | > 10
5 | O=C1NC(=NCCc2ccccn2)S/C1=C\c1ccc2ncccc2c1 | 15.4 | > 25 | 9.59 | > 25 | 11.7 | > 25 | 9.02 | > 22.2 | 9.79 | > 20.2 | 8.33 | > 25 | 8.04 | 22.6 | 13.8 | > 25 | 8.2 | > 25 | 11 | > 25
6 | COc1ccc2c(c1)C(c1cc(OC)c3c(c1)OCO3)C1=C(COC1=O)N2 (configuration not stated) | 0.36 | > 100 | 0.049 | 0.287 | 0.397 | 3.16 | 0.347 | > 44.8 | 0.214 | > 79.4 | 0.373 | > 100 | 0.51 | > 100 | 0.325 | – | 1.57 | > 100 | 0.389 | 4.8
7 | COC(=O)CNc1nc(N(C)O)nc(N(C)O)n1 | 4.53 | > 100 | 10.5 | > 100 | 2.15 | 45 | 3.45 | 25.7 | 8.96 | > 100 | 5.07 | > 100 | 1.69 | > 100 | 6.5 | > 100 | 1.35 | > 100 | 8.31 | > 100
8 | COc1cc2nc3cc([N+](=O)[O-])ccc3c(NCCNCC(C)O)c2cc1OC (configuration not stated) | – | – | 0.572 | 1.98 | 0.445 | 2.2 | 0.63 | 2.18 | 1.45 | 5.51 | 0.431 | 3.09 | 0.353 | 6.21 | 0.317 | 1.28 | 0.614 | 3.93 | 1.05 | 3.18
9 | Cn1cc(C2=C(c3cn(CCCCCO)c4ccccc34)C(=O)NC2=O)c2ccccc21 | 4.92 | 15.7 | 0.815 | 4.4 | 8.83 | > 25 | 2.83 | 8.15 | 3.74 | 17.5 | 3.17 | > 25 | 4.71 | 16.6 | 3.31 | 13.9 | 6.82 | 24.8 | 5.03 | 15.8
10 | CN(C)Cc1c(C(=O)NCCOc2ccc(C(=O)NO)cc2)oc2ccccc12 | 0.267 | 2.5 | 0.174 | 0.679 | 0.225 | > 33.6 | 0.243 | 1.54 | 0.158 | 0.851 | 0.166 | 0.547 | 0.114 | 1.53 | 0.205 | 1.36 | 0.264 | 1.15 | 0.626 | 7.6
11 | NCCSC(c1ccccc1)(c1ccccc1)c1ccccc1 | 1.64 | 3.34 | 0.242 | 0.55 | 2.32 | 6.07 | 1.18 | 2.72 | 1.09 | 5.29 | 0.558 | 2.48 | 2.3 | 7.1 | 1.95 | 4.23 | 1.48 | 11.2 | 4.79 | 22.7
12 | CN1C(=O)C2(c3ccccc31)C1CC3C(CO1)C1C2C3(CO)CN1C#N (configuration not stated) | – | > 100 | – | > 100 | – | > 100 | – | > 100 | – | > 100 | – | – | – | > 100 | – | > 100 | – | > 100 | – | > 100
13 | CCCN(CCC)c1ccc(C=O)c(C)c1 | 68.2 | > 100 | 32.6 | > 100 | 77.6 | > 100 | 30.9 | > 100 | 39.7 | > 100 | 45.9 | > 100 | 39.8 | > 100 | 33.5 | > 100 | 49.4 | > 100 | 11.3 | > 71.5
14 | CC1(C)CCC(C)(C)c2cc(NC(=O)c3ccc(C(=O)O)cc3)ccc21 | – | > 82.2 | – | > 77.8 | – | > 100 | – | > 60.5 | – | > 83.5 | – | > 100 | – | > 100 | – | > 95 | – | > 100 | – | > 79.5
15 | CN(C)CCOc1ccccc1NC1=C(Cl)C(=O)C(Nc2ccccc2OCCN(C)C)=C(Cl)C1=O | > 95 | > 100 | 9.42 | > 40.6 | 6.64 | – | 19.2 | > 57 | 29.5 | > 83.1 | 0.566 | 1.24 | 0.694 | 1.91 | 0.83 | 3.5 | 0.494 | 1.6 | 23.6 | > 57.9
16 | COc1ccc(NC(=O)c2ccc(NC3=C(Cl)C(=O)N(Cc4ccccc4)C3=O)cc2)c(OC)c1 | 83.3 | > 100 | 16.7 | 48.9 | 28.8 | 85.7 | 25.7 | 68.9 | > 100 | > 100 | 29.2 | > 100 | 9.94 | 36.2 | 41.5 | > 100 | 36 | > 100 | 43.9 | > 100
17 | O=[N+]([O-])c1ccc2c(c1)C(c1ccccc1Cl)=Nc1c(n[nH]c1-c1cccnc1)N2 | > 25 | > 25 | > 25 | > 25 | > 25 | > 25 | > 25 | > 25 | > 19.9 | > 25 | > 25 | > 25 | > 25 | > 25 | > 25 | > 25 | > 25 | > 25 | > 25 | > 25
18 | COc1cc(C2CC(=O)Nc3c2c(C)nn3-c2nc3ccccc3[nH]2)cc(OC)c1O (configuration not stated) | 2.4 | 6.58 | 1.98 | 4.42 | 4.98 | 40.3 | 2.23 | 4.52 | 2.05 | 7.7 | 3.04 | 17.4 | 0.0427 | 0.242 | 3.66 | 16.6 | 3.11 | > 28.6 | 2.46 | 7.16
19 | NC(N)=Nc1ccc(/C=C2\C=Cc3ccccc32)cc1 | 4.38 | 17.9 | 1.84 | 3.92 | 2.36 | 5.03 | 4.83 | 11.6 | 5.38 | 28.6 | 1.83 | 3.82 | 2.41 | 5.22 | 2.05 | 4.11 | 1.91 | 3.56 | 5.73 | 31.1
20 | [Cu+2].[NH-]C(CC(=O)O)C(=O)O.[NH-]C(CC(=O)O)C(=O)O (configuration not stated) | > 100 | > 100 | 40.2 | > 100 | > 100 | > 100 | > 100 | > 100 | > 100 | > 100 | > 100 | > 100 | > 100 | > 100 | > 100 | > 100 | > 100 | > 100 | > 100 | > 100
21 | N#CC1=C(N)Oc2c(sc3c(Br)cccc23)C1c1ccc(Cl)cc1 (configuration not stated) | 1.15 | 4.45 | 0.277 | 1.01 | 0.533 | 3.29 | 0.672 | 12.3 | 0.855 | 18.1 | 0.408 | > 100 | 0.625 | 6.49 | 0.711 | 2.85 | 0.531 | 2.46 | 1.49 | 10.4
22 | O=[N+]([O-])c1oc2ccc3ccccc3c2c1CCO | – | 3.27 | – | 3.16 | – | > 36.5 | – | 3.94 | – | 27.7 | – | 40.2 | – | > 100 | – | 25.7 | – | 3.68 | – | 30.1
23 | Oc1ccccc1/C=N\NC(=S)N/N=C/c1ccccc1O | 4.14 | > 100 | 1.97 | 25.3 | 2.95 | 61 | 13.4 | 55.9 | 10.7 | 69.6 | 3.54 | > 100 | 1.43 | 22.4 | 6.63 | 48.8 | 1.77 | > 100 | 2.26 | > 100
24 | CN(C)c1ccccc1[CH2][Ga]([Cl])[CH2]c1ccccc1N(C)C | – | – | 1.61 | 3.12 | 1.61 | 3.2 | 1.13 | 2.87 | 1.28 | 5.79 | 1.76 | 3.92 | 0.927 | 5.37 | 0.583 | 2.82 | 1.43 | 3.12 | 0.537 | 1.95
25 | COc1ccc(-c2[nH]nc(N)c2-c2cc(OC)c(OC)c(OC)c2)cc1 | – | – | 0.0106 | 0.0446 | 0.0354 | 1.76 | 0.0379 | > 100 | 0.0352 | > 59 | 0.0387 | > 100 | 0.0487 | – | 0.0343 | 18.2 | 0.0806 | > 100 | 0.512 | > 100
26 | CCCCCCCCCCCCCCCCN(CC)CC | 1.91 | 3.84 | 1.95 | 3.86 | 2.79 | 7.52 | 3.01 | 8.9 | 3.47 | 15.8 | 2.03 | 3.9 | – | – | 2.13 | 4.59 | 2.1 | 4.45 | 3.74 | 16.9

From PubChem BioAssay (NCI)
